Data as given in patent US20170246227A1, “COMBINATION COMPRISING SPIRULINA AND PALMITOYLETHANOLAMIDE AND/OR SALTS OR PHARMACEUTICALLY ACCEPTABLE DERIVATIVES THEREOF AND THEIR FORMULATIONS, FOR USE IN THE PREVENTION AND/OR IN THE TREATMENT OF HYPERACTIVATED TISSUE CONDITIONS” (priority 2014, published 2017).

Tests used:
Assay type in all cases: in vivo, human
[1] = Fasting glycaemia at beginning and end of the diabetic peripheral neuropathy study; details: 1 patient each, 35 days, on oral hypoglycaemic agents; combination 35% spirulina, 65% PEA
Procedure: In the study, three patients were treated, comprising both men and women who suffered from peripheral neuropathy of diabetic origin. All the patients presented the classic symptoms of peripheral neuropathy, i.e. the classic symptoms consisting of paraesthesias, the sensation of ‘walking on cotton wool’, insensitivity to heat and/or cold, etc., and all the patients were undergoing specific treatments to control glycaemic values, in particular oral hypoglycaemic agents. The patients' glycaemia was tested, both at the beginning and the end of the study, to see if taking the product influenced glycaemic control in any way. […]

[2] = tested on: patients suffering from age-related macular degeneration; test: Clinical study in senile macular degeneration, Amsler test before and after treatment; details: 1 patient each, tablet 4x/day for 10 days then 2x/day for 30 days; PEA 450 mg and/or spirulina 550 mg per tablet; combination 55% spirulina, 45% PEA
Procedure: A clinical study was performed to test the synergistic effect of the combination of spirulina (used as dry extract) and PEA in the treatment of senile macular degeneration.
In the study, three patients were treated, comprising both men and women, who were suffering from age-related macular degeneration with the presence of macular drusen, i.e. localised deposits between the retinal pigment epithelium (RPE) and the Bruch membrane, together with geographic atrophy, characterised by RPE cell death and atrophy of the overlying photoreceptors.
All the patients underwent an assessment with the Amsler test, prior to administration of the combination of spirulina and PEA. All three patients presented macular degeneration with distortion (metamorphopsia) or line breaks with an average degree of macular degeneration. […]

[3] = tested on: patients with praecordial pain of cardiac origin (angina pectoris); test: Clinical study in angina pectoris (chest pain), stress ECG; details: 1 patient each, PEA 300 mg and/or spirulina 700 mg per tablet, combination 70% spirulina, 30% PEA
Procedure: A clinical study was performed to test the synergistic effect of the combination of spirulina (used as dry extract) and PEA in the treatment of angina pectoris (chest pain).
In the study, three patients were treated, comprising both men and women who suffered from praecordial pain of cardiac origin. Upon undergoing a stress ECG, all the patients presented anginal pain during the stress and all were undergoing specific treatments (antihypertensives, beta blockers), which—nevertheless—were unable to fully control the aforesaid symptoms. […]

[4] = tested on: diabetic patients with altered renal functions; test: Clinical study in altered renal functions in diabetics: creatinine value at beginning and end
Procedure: A clinical study was performed to test the synergistic effect of the combination of spirulina (used as dry extract) and PEA in the treatment of altered renal functions, preferably in diabetics.
In the study, three patients were treated, comprising both men and women who suffered from diabetes. All patients presented altered renal functions, evidenced by the creatinine value, i.e. a creatinine value of over 4 mg/dl (normal values range from 0.7 to 1.3 mg/dl). All the patients were undergoing specific treatments (conventional drugs, such as Decadurabolin, etc.) which, nevertheless, were unable to control the renal dysfunction. The patients' creatinine values were tested, both at the beginning and the end of the clinical study assessment.
In accordance with the present invention, the patients were treated according to the following schema: • the first patient was treated with a tablet comprising 650 mg of PEA, administered four times a day, for a daily total of 2,600 mg of PEA, for a duration of 5 days; next, the same patient was treated with one tablet, comprising 650 mg of PEA, administered twice a day, for a daily total of 1,300 mg of PEA, for a duration of 30 days; • the second patient was treated with a tablet comprising 350 mg of spirulina, administered four times a day, for a daily total of 1,400 mg of spirulina, for a duration of 5 days; next, the same patient was treated with one tablet, comprising 350 mg of spirulina, administered twice a day, for a daily total of 700 mg of spirulina, for a duration of 30 days; • next, the third patient was treated with one tablet, comprising 350 mg of spirulina and 650 mg of PEA, administered four times a day, for a daily total of 1,400 mg of spirulina combined with 2,600 mg of PEA, for a duration of 5 days; next, the same patient was treated with one tablet, comprising 350 mg of spirulina and 650 mg of PEA, administered twice a day, for a daily total of 700 mg of spirulina combined with 1,300 mg of PEA, for a duration of 30 days.

[5] = tested on: patients suffering from tinnitus; test: Clinical study of spirulina, PEA and their combination in the treatment of tinnitus; details: 2 patients per group, oral tablets 2x2/day for 5 days then 1x2/day for 10 days; PEA 350 mg and/or spirulina 650 mg per tablet; combination 65% spirulina, 35% PEA
Procedure: A clinical study was performed to test the synergistic effect of the combination of spirulina (used as dry extract) and palmitoylethanolamide (PEA) in the treatment of tinnitus.
In the study, six patients were treated, comprising both men and women, with a mean age of 49.6 years (person, person, person, person, person, […] women), who had been suffering from tinnitus for at least one year. […]
The improvements regarding the tinnitus were declared by patients, while the improvement in hearing was measured via an audiometric test, carried out before and after administration of the combination in the invention. […]

[6] = tested on: patients with peripheral neuropathy of diabetic origin; test: Clinical study in diabetic peripheral neuropathy: nerve conduction by neurological tuning fork, biothesiometer and Achilles reflex; details: 1 patient each, combination 35% spirulina, 65% PEA
Procedure: A clinical study was performed to test the synergistic effect of the combination of spirulina (used as dry extract) and PEA in the treatment of peripheral neuropathy in diabetics.
In the study, three patients were treated, comprising both men and women who suffered from peripheral neuropathy of diabetic origin. All the patients presented the classic symptoms of peripheral neuropathy, i.e. the classic symptoms consisting of paraesthesias, the sensation of ‘walking on cotton wool’, insensitivity to heat and/or cold, etc., and all the patients were undergoing specific treatments to control glycaemic values, in particular oral hypoglycaemic agents. The patients' glycaemia was tested, both at the beginning and the end of the study, to see if taking the product influenced glycaemic control in any way. All the patients had mean fasting glycaemia values of approximately 140 to 165 mg/dl. […]

## CCCCCCCCCCCCCCCC(=O)NCCO [PEA, Palmitoylethanolamide]
[1]
  glycaemic profile: without any influence on the glycaemic profile
[2]
  Amsler test result after treatment: slight improvement in the Amsler test result
[3]; 45 days
  praecordial pain of cardiac origin when stress was increased during the stress ECG: presented praecordial pain of cardiac origin
[3]; tablet 4x/day for 15 days then 2x/day for 30 days, added to treatments already underway
  change in condition / capacity to endure the stress ECG versus before administration: no significant changes in condition
[4]; 1 diabetic patient each, tablet 4x/day for 5 days then 2x/day for 30 days, PEA 650 mg and/or spirulina 350 mg per tablet, combination 35% spirulina, 65% PEA
  renal functions: no improvement in renal functions
[4]; after 35 days, normal values 0.7 to 1.3 mg/dl, combination 35% spirulina, 65% PEA
  creatinine value at the end of the treatment: 4.4 mg/dL
[4]; baseline of the treated patient, normal values 0.7 to 1.3 mg/dl
  creatinine value at the beginning of the treatment: 4.3 mg/dL
[5]
  change in tinnitus perceived (declared by patients): neither the two patients treated with PEA, nor the two patients treated with spirulina showed variations in the tinnitus
[6]; 35 days
  nerve conduction assessed with tuning fork and biothesiometer: slight response to the biothesiometry test
[6]; tablet 4x/day for 5 days then 2x/day for 30 days, PEA 650 mg and/or spirulina 350 mg per tablet
  neuropathic symptoms / condition: slight improvement in the neuropathic symptoms
